Reference: US20190008810A1, “METHOD FOR PREVENTION, TREATMENT AND ALLEVIATION OF INFECTIOUS DISEASES AND DISORDERS” (REPLICON HEALTH OY, priority 2016, published 2019)

How the values were obtained:
HO-1, CYP2B6, PGC-1a = experiment: Gene expression in primary human hepatocytes after 48 h+2 h; type: cell-based
Description: FIG. 13b: Gene Expression results from Primary Hepatocytes after 48 h+2 h of the DGA Activation vs. 0-control. […] Combined test for PGC-1a yielded P-value of some 10%. Primary human hepatocytes were purchased from Celsis In Vitro Technologies (1450 South Rolling Road Baltimore, Md. 21227, USA). Primary hepatocytes were received from three different post mortem human donators. […] This is also the case for DOO.
In this experimental model the cells in the 0-Control and in the two DGA Activation groups were normally and identically incubated before DGA Activation. Incubation the medium is changed every 24 hours. When the 48 hour+2 hour DGA Activation started, the only difference was the addition of either 1.4 μM or 14 μM of DGA to the used medium. The D-glyceric acid calcium salt was carefully mixed in to medium before the administration. Thus, it was separated from the calcium salt.

[1] = tested on: rat primary optic nerve astrocytes; experiment: Cell viability (MTT and LDH assays) of rat primary optic nerve astrocytes; type: cell-based
Description: For proving the efficacy of DGA Activation in reducing ROS in infectious disorders an in vitro study using rat primary optic nerve astrocytes has been conducted. […] As an important part of the study the cell viability was estimated 6 hours after tBHP administration by two methods, i.e. LDH and MTT assays. Cell viability was measured using the in-house MTT assay (of Experimentica Ltd., Finland) and CytoTox96 non-radioactive cytotoxicity assay (G1780, Promega) in response to oxidative stress primary optic nerve astrocytes. The production of reactive oxygen species (ROS) was measured using CellROX Green (Invitrogen) and isolate RNA in RNALater solution (Ambion). Prior study preparations to find suitable tBHP concentration: The astrocytes where seeded at 5000 cells per well and allowed to grow for 48 hrs to mimic the study. On day 2 the medium was removed and the cells were exposed to a dose response range of tBHP in fresh medium for 6 hrs. The MTT and LDH assay were performed to assess cell survival using the Victor microplate reader. The raw data was given to patent applicant for assessment. […] After 24 hrs the compounds were removed, and readded with new medium for 1 hr, prior to the administration of 85 μM tBHP (FIG. 3c). […]

CRP = experiment: Blood CRP in healthy mice, 4-day test; type: in vivo; details: 65 mg/kg/day in chow, 4 days, N=8; pairwise one-sided t-test p-value=0.04
Description: In this Example, CRP results from 3 separate preclinical tests are presented and analyzed. First 4-day CRP test was conducted with 8 healthy mice using individuals as their own controls. Second 7-day CRP test was conducted in discontinuous disease model. And third also 7-day CRP test was conducted in continuous disease model. CRP present in mouse serum samples were analyzed using mouse CRP ELISA kit (GWB-3B960E, Genway Biotech Inc.). All blood samples were collected at the same time of the day.
For evaluating possible effect of the DGA Activation in health, a 4-day test with healthy mice in Charles River Labs, Kuopio test facilities were conducted. In this test (prior initiation of the MPTP -model) the DGA was mixed into chow at the concentration of 65 mg/kg/day.

[2] = tested on: acute bowels inflammation caused by diverticulitis; experiment: Healing from acute inflammatory bowels disease (diverticulitis) in S4, Example 1e; type: in vivo, human
Text: In Example 1e the resolution of gastrointestinal tract infection in another subject 4 (S4) has been shown. Like in S1 also in S4 the HO-1 pathway is clearly activated by the DGA Activation. This is indirectly shown by the clear reduction of blood bilirubin in Table 1e. […] During last few years these seldom but acute inflammations in the gastrointestinal tract have been mostly in the colon and caused by inflammation in Colonic diverticula. […] The only functioning therapy for inflammatory bowels disease has been the administration of strong intravenous antibiotics.
Like other tests with unhealthy humans also this test was done because there were no other efficient substances available. When symptoms of increased bowels inflammation/diverticulosis started S4 was on holiday abroad with very difficult access to any specialized doctor not to mention any hospital. […] Simultaneously with inflammatory symptoms and maybe partially enhancing them S4 experienced constipation.
By Saturday night on the 4th day of gradually increasing acute inflammation in the colon, S4 decided to test whether DGA Activation in combination with paracetamol would assist in resolving this already rather serious inflammation. There were no other available options at that moment. This decision was also supported by confidential information received on positive results with S1 (Examples 1b and 1c).
Saturday night at 0737 pm first 260 mg of D-glyceric acid calcium salt mixed into water was taken with 2×500 mg of paracetamol. Another additional 260 mg dose of DGAcs mixed into water was taken the same night at 1020 pm. Altogether the starting dose was 9 mg/kg i.e. relatively high. High initial dose was chosen because of high level of inflammation.

[3] = 1.4 μM, combined data, P-value approximately 1%

For `O=C(O)[C@H](O)CO` [DGA, D-glyceric acid], the “CYP2B6 expression vs control” value (HO-1, CYP2B6, PGC-1a; [3]) was “statistically significantly different from control”, the “HO-1 expression vs control” value (HO-1, CYP2B6, PGC-1a; [3]) was “statistically significantly different from control” and the “PGC-1a expression vs control” value (HO-1, CYP2B6, PGC-1a; combined test P-value of some 10%) was “activated compared to control”. For the same compound, the “increase of HO-1 expression” value (HO-1, CYP2B6, PGC-1a; primary human hepatocytes in vitro) was 50-80%, the “cell viability after tBHP administration” value ([1]; 85 μM tBHP, 6 hrs) was “clearly higher” and the “cell viability compared to 0-controls” value ([1]; in health (0 μM tBHP) and in disease state (85 μM tBHP)) was “increases in both”. The “blood CRP vs own starting level” value (CRP) was “overall decline in CRP was statistically significant”, the “decline of blood corticosterone compared to 0-Control” value (corticosterone, IL-6; 9 mg/kg of body weight/day of DGAcs in feed, 3 weeks, N=30, p-value=0.021) was ~40% and the fat formation (corticosterone, IL-6; 3-5 week feeding study, N=144) was “fat formation is not increased”. For the same compound, the “average IL-6 levels compared to 0-control” value (corticosterone, IL-6; 21-28 days, not statistically significant, p-value=0.12) was “lower average IL-6 levels”, the late mortality (corticosterone, IL-6; earlier broiler chicken experiment without infection, 1-2% in other groups) was “no mortality in DGA groups” and the “time needed to turn the inflammatory process clearly down” value ([2]; S4) was ~36 h. For the same compound, the defecation ([2]; S4, Sunday 0910 am, morning after 2×260 mg DGAcs with 2×500 mg paracetamol) was “could defecate (almost normally) for the first time in 3 days” and the pains in bowels ([2]; S4, Wednesday morning, after 240 mg twice a day) was “All the pains in bowels had disappeared”.
